Results on one molecule are retold here after patent publication US9868763B2, “Modulators of protease activated receptors” (The University of Queensland, priority 2011, dated 2018).

Test [1] concerns λ-carrageenan-induced paw oedema. The experiment in a line: λ-carrageenan-induced paw oedema. The class given is in vivo, Wistar rat. The note with it: 10 mg/kg p.o., 1% λ-carrageenan intraplantar. The protocol:
Methods were based on literature (Kelso E B et al., J Pharmacol Exp Ther 2006, 316(3):1017-24; Kawabata A et al., Peptides 2001, 23(6):1181-3). Male Wistar rats (n=4 per group) were given 10 mg/kg PAR2 antagonist 52 (p.o. via gavage in olive oil, 500 μL). Control animals received only olive oil. Thirty minutes later, λ-carrageenan was administered into the right hind paw pad (1% w/v in saline, 100 μL, i.pl, Left paw saline control). Paw thickness and width were measured at 1-6, 8 and 24 h (as above) and swelling expressed in area (mm^2) and plotted as % change from baseline of each individual paw.
Background: In the carrageenan paw model, swelling and tenderness develop within hours.

In test [2] the target is T1, PAR2 (Homo sapiens, UniProt P55085).
T1 sequence (P55085 26-397): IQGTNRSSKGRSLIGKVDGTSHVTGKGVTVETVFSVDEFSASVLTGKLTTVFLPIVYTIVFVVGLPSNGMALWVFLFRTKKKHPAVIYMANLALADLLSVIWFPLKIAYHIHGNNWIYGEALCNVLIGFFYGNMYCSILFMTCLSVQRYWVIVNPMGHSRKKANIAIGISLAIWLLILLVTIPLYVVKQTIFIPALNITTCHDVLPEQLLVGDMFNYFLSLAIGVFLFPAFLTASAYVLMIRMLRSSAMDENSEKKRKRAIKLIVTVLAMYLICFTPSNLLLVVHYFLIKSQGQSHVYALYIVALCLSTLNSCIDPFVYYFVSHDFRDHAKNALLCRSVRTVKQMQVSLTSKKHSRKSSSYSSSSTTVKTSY
Nature of the test: PAR2-induced intracellular Ca2+ release in human macrophages. Format: cell-based. Also noted: endogenous in cells.
Source text: Peripheral blood mononuclear cells were isolated from buffy coat (Australian Red Cross, Kelvin Grove, QLD) using Ficoll-paque density centrifugation (GE Healthcare Bio-Science, Uppsala, Sweden). CD14^+ monocytes were positively selected using CD14^+ MACS magnetic beads (Miltenyi Biotech, Auburn, Calif., USA). Monocytes were differentiated to HMDM in complete media using M-CSF (PeptroTech Inc, Rocky Hill, N.J., USA). HMDM were supplemented with 50% fresh complete medium containing CSF-1 on Day 5 after seeding and re-plated for use on Day 7.

The subject of test [3] is β-tryptase-induced paw oedema. Nature of the test: β-tryptase-induced paw oedema. The class given is in vivo, Wistar rat. The protocol:
Based on previous methods (Kelso E B et al., J Pharmacol Exp Ther 2006, 316(3):1017-24; Suen J Y et al., Br J Pharmacol 2011, doi: 10.1111/j.1476-5381.2011.01610.x.), PAR2 antagonist 52 (10 mg/kg s.c.; n=4), ENMD-1068 (100 mg/kg s.c.; n=4) or vehicle control (DMSO s.c.; n=2) were administered to male Wistar rats. Baseline paw thickness and width were measured using digital calipers (World Precision Instruments, USA) expressed in area (mm^2; thickness×width). Fifteen minutes later, 2Furoyl-LIGLRO-NH2 (350 μg/paw in 100 μL saline) was injected into of the right hind paw pad (intraplantar, i.pl.). The left hind paw acted as a control, receiving saline only. In a separate experiment, vehicle (500 μL olive oil) versus PAR2 antagonist 52 (10 mg/kg p.o. in 500 μL olive oil) only were administered orally to two groups of rats (4 per group). Two hours later, β-tryptase (human recombinant lung, 20 μg in 100 μL saline) was injected into the right hind paw pad (vehicle in left for control) of all animals in each group. In all experiments, paw swelling was measured and expressed in area (mm^2; thickness×width) and plotted as % change from baseline of each individual paw.

Test [4] relates to TNBS-induced chronic colitis. The experiment in a line: TNBS-induced chronic colitis model. Format: in vivo, rat. To be noted: sulfasalazine 100 mg/kg/day p.o. The protocol:
On day 0, rats were weighed, given respective treatments of either sulfasalazine (100 mg/kg in olive oil p.o.), compound 52 (10 mg/kg in olive oil), or vehicle (500 l olive oil p.o.), and fasted for 24 h with water supplied ad libitum. The next day (day 1), rats were weighed, dosed with respective compound, and anesthetized with isofluorane. A polyethylene catheter was inserted intrarectally (8 cm). Control and drug-treated animals received an intracolonic dose of TNBS (80 mg/kg in saline and 250 l, 50% ethanol in water) (Fiorucci at al., 2001). Sham animals received vehicle only, with TNBS replaced by equivolume water. Rats were maintained in an inclined position (40°) for 30 min, then allowed to recover with food and water supplied. Rats were dosed daily with the respective compound, weighed, and scored for general health and disease progression. All rats were sacrificed on day 8 of experimentation unless they were sacrificed earlier. Disease progression and post-mortem colonic histopathology was scored by the following methods. PAR2 and tryptase co-localization were investigated by using immunohistochemistry.
DAI for both acute and chronic models was assessed and scored by an expert blinded to treatments. Scores incorporated mobility, gastrointestinal pathology, discomfort, and generalized sickness behaviour criteria (each scored 0-3). Any animal that reached stage 3 in any criteria was euthanized by CO2 inhalation and recorded as a disease-related mortality. Scores were summed and expressed as total disease score (maximum 12). DAI was measured at endpoint only (10 h) in the acute study and daily in the chronic TNBS study.
Colons were dissected post-mortem and given a macroscopic disease score based on that described previously (Bobin-Dubigeon et al., 2001) with some minor alterations (maximal score 14). The entire colon length was removed between the ileocolic and colorectal junction. Length and maximal distension width were measured. Sections of affected colon were taken for biochemical analysis, histology, and wet/dry weight.

The target in test [5] is T1, PAR2. Nature of the test: PAR2 agonist inhibition (antagonism): intracellular Ca2+ release in HT29 cells. Also noted: endogenous in cells; host or cells: HT29 (human colorectal adenocarcinoma). Format: cell-based. The note with it: other ligands; inhibiting Ca2+ release in HT29 cells; 30 min pre-incubation, agonist at EC80. The method, then:
Cells are seeded overnight in 96-well black walled, clear bottomed, plate at approximately 2×10^4 to 4×10^5 cells per well. […] The cells are then washed twice with HBSS and transferred to a Polarstar spectrofluorimeter (BMG, Durham N.C.).
The cells are prepared as outlined above then treated with the ‘putative’ antagonist 30 min prior to the addition of either trypsin or a synthetic agonist at a concentration equal to the agonists EC80.
The cells were then treated with 1 μM of the PAR2 agonist 2f-LIGRLO-NH2 (FIG. 2A, n=5) or 100 nM Trypsin (FIG. 2B, n=1). Each data point represents mean±SEM. Net changes in fluorescence were calculated as a percentage relative to the maximum response given 1 μM 2f-LIGRLO-NH2 or 100 nM Trypsin. Changes in fluorescence (% response) were plotted against logarithmic compound concentrations. The half maximal inhibitory concentration (IC50) values were derived from the dose response curve using a nonlinear regression curve in Graphpad Prism v5.

In the next test the target is T2, β-tryptase (Homo sapiens, UniProt Q15661).
T2 construct: purchased Promega
The experiment in a line: Tryptase activity assay. Format: biochemical. To be noted: 20 μM; substrate tosyl-Gly-Pro-Arg-pNA. The protocol:
β-tryptase (10 ng/μL, 100 μL) was incubated±PAR2 antagonist 52 (20 μM) for 15 min, to which substrate tosyl-Gly-Pro-Arg-pNA (250 μM) was added. Absorbance was measured as optical density at 405 nm (FLUOstar Optima, BMG labtech, Aust.) every 41 s for 1 h.

Entries after “also recorded” stand apart in the source; their conditions may differ.

T2 sequence (Q15661 31-275): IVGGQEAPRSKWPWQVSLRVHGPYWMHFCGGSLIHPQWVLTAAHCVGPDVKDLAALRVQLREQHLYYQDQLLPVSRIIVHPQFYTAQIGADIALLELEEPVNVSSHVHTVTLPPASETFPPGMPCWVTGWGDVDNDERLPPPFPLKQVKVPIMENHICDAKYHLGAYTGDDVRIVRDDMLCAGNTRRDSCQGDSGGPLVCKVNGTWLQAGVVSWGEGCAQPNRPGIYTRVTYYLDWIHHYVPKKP

As for `CC[C@H](C)[C@@H](NC(=O)[C@H](CC1CCCCC1)NC(=O)c1ccno1)C(=O)N1CCC2(C=Cc3ccccc32)CC1` [Compound 52], the “λ-carrageenan-induced oedema reduced to” value in test [1] was found to be 50%. Also, the “PAR2 antagonist potency relative to ENMD-1068” value on PAR2 [2] came to 1000 fold. In addition, the “paw oedema induced by β-tryptase” value in test [3] (10 mg/kg p.o. in olive oil, β-tryptase 20 μg/paw 2 h later) was “reduced paw oedema; also recorded: prevented the oedema; also recorded: strongly inhibited”. Further, the “β-tryptase-induced mast cell degranulation in the extrasynovium” value in test [3] (10 mg/kg pretreatment) is “ameliorated; also recorded: prevented”. Further, in test [4] (52 10 mg/kg/day p.o.), the “chronic colitis: mortality and pathology (colon obstruction, ulceration, wall thickness, myeloperoxidase release)” value was “ameliorated; also recorded: more effectively than the clinically used drug sulfasalazine”. In test [4] (52 10 mg/kg/day), this molecule displayed a TNBS-mediated mortality of 8.3%. Besides, in test [4] (from day 2 onward, 52 10 mg/kg/day), the “DAI compared with TNBS-controls” value is on record as “marked improvements in DAI; also recorded: almost complete recovery”. Moreover, on PAR2 [5], the 50% inhibitory concentration (IC50) (in general, the concentration at which inhibition is half-maximal) came to 1000 nM. Further, the “inhibition of proteolytic activity of β-tryptase” value against β-tryptase is “did not inhibit; also recorded: not inhibited”.
